From patent publication US20130079345A1, “[…] ACTIVE DISUBSTITUTED TRIAZINE DERIVATIVES” (BAYER INTELLECTUAL PROPERTY GMBH, priority 2010, published 2013)
Structures can show the parent of a compound that is named as a salt.

Tests used:
[1] = molecular target: T1, CDK9 (Homo sapiens, UniProt P50750); assay: Lance Ultra KinaSelect Assay, CDK9; assay type: biochemical; conditions: read-out: Inhibition (IC50) CDK9
T1 construct: purchased Invitrogen
Protocol: (§1) This protocol describes how the Lance Ultra KinaSelect Assay was performed to determine half maximal inhibitory concentration (IC50) of compounds of general formula (I) and CDK/Cyclin complexes. The principle behind this enzymatic assay is based upon the phosphorylation of the ULight-Peptide Substrat. It is detected by using a specific EU-labeled anti-phospho peptide antibody. The binding of the Eu-labeled anti-phospho peptide antibody to the phosphorylated U Light labeled peptide gives rise to a FRET-signal. Binding of an inhibitor to the kinase prevents phosphorylation of the ULight-MBP Substrat, resulting in a loss of FRET.
(§2) The compounds of general formula (I) summarized in Table 5 were diluted from a 10 mM DMSO stock solution 1:10 in a total volume of 15 μL DMSO. This compound predilution was then serial diluted 1:3 over 8 steps in DMSO and briefly spun down. Each compound solution was now diluted 1:20 in Enzymatic Buffer (HEPES: 50 mM, pH: 7.5; MgCl2: 10 mM; EGTA: 1 mM; DTT: 2 mM; Tween-20: 0.01%), mixed thoroughly and spun down. For every sample, 2 μL of the diluted compound were mixed with 6 μL CDK/Cyclin/Substrat solution and […] in a well of a small volume 384 well plate (Corning Incorporated, Corning, N.Y., USA; order no. 3673). […] For positive controls, in each well 2 μL of DMSO solution (1% final DMSO assay concentration) was mixed with 6 μL CDK/Cyclin/Substrat (appropriate final concentration see Table 3) and 2 μL Tracer ATP solution (appropriate final concentration see Table 3). Positive and negative controls were calculated from at least 8 different sample wells. The 384 well plates were mixed in a Teleshaker plate mixer (Beckman Coulter, Brea, Calif., USA) at 2000 rpm for 40 sec, and incubated for 1 h at room temperature. Before reading, 10 μL detection buffer (Lance Detection Buffer 1×; EDTA: […]; Eu-Anti-P-MBP: see Table 3) was added. The FRET signal was measured at 340 nm excitation, 665 nm and 615 nm emission (for the kinase tracer and LanthaScreen Eu-AB, respectively) with an Envision spectrophotometer (Perkin Elmer, Waltham, Mass., USA) with 50 μs delay and 300 μs integration time. IC50 values were determined from the sigmoidal dose response curves with the software Quattro Workflow (Quattro GmbH, Munich, Germany).

[2] = system: NF-kappaB reporter gene activation in HEK293 cells; assay: NF-kappaB reporter assay; assay type: cell-based; conditions: Homo sapiens, 20 ng/ml TNF alpha, 5 h
Protocol: Cells were maintained in RPMI cell culture medium+glutamine (PAN Biotech GmbH, Aidenbach, Germany) supplemented with 10% fetal calf serum (PAA Laboratories GmbH, Pasching, Austria) and grown at 37° C., 5% CO2. HEK293 cells grown to 50% confluence were transfected with the Amaxa® Cell Line Nucleofector® Kit V (Lonza, Basel, Switzerland, catalog #VCA-1003). Transfections were performed according to manufacturer's optimized protocol for transfection of HEK293 cells. In brief, 2×10^5 cells were transfected with 5 μg highly purified plasmid DNA. Cells were transfected with a NF-kappa B reporter plasmid (pNFkBluc), pTALluc for control, or pMAXGFP for transfection control. After transfection, cells were taken up in 500 μL RPMI1640 cell culture medium, incubated for 1 h at 37° C., and 4.5 ml DMEM without phenol red were added per transfection. Transfected cells were seeded in 96 well plates (Greiner Bio-One, Frickenhausen, Germany, catalog #655098) with 100 μL cell suspension per well and incubated for 48 h. To each well, 100 μL DMEM with 2× concentrated compound diluted from 10 mM DMSO stocks, or 100 μL DMEM with 0.4% DMSO for control wells, was added. The compounds of general formula (I) summarized in Table 6 were used in this assay. Cells were stimulated with 20 ng/ml TNF alpha, and plates were incubated for 5 h at 37° C./5% CO2. Cell culture supernatants were removed to leave 100 μl medium per well, followed by addition of 100 μl Bright Glo luciferase assay reagent (Promega, Madison, Wis., USA, catalog #E2620), and shaking for 5 minutes in the dark. Luminescence was measured with a Victor Photospectrometer (Perkin Elmer, Waltham, Mass., USA). […], values were calculated with the software Excel Fit (IDBS, Guildford, UK) from 2-fold dilution series comprising at least 10 concentrations in duplicates.

[3] = molecular target: T2, CDK2/CyclinA (Homo sapiens, UniProt P24941); assay: Lance Ultra KinaSelect Assay, CDK2; assay type: biochemical; conditions: ATP 3 μM, read-out: Inhibition (IC50) CDK2
T2 construct: purchased Proqinase
Protocol: as §1, §2

T1 sequence (P50750 whole entry): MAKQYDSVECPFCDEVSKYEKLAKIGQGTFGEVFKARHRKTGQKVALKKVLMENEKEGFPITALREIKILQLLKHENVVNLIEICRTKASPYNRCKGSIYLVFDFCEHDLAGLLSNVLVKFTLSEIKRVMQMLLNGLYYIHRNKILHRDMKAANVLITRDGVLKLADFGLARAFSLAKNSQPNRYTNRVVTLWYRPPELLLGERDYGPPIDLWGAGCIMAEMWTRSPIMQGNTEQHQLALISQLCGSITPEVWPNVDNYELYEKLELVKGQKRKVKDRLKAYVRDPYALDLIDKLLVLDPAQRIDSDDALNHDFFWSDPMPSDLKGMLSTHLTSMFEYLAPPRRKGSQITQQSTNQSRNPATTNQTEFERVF

SMILES	IC50 [1] [nM]	IC50 [2] [nM]	IC50 [3] [nM]
COc1cc(F)ccc1-c1ncnc(Nc2cccc(CS(N)(=O)=O)c2)n1 [Compound B2, 3-[(4-(4-Fluoro-2-methoxyphenyl)-1,3,5-triazin-2-yl)amino]benzenemethanesulfonamide]	10.6		
CCOc1ccccc1-c1ncnc(Nc2cccc(CS(N)(=O)=O)c2)n1 [Compound B12, 3-[(4-(2-Ethoxyphenyl)-1,3,5-triazin-2-yl)amino]benzenemethanesulfonamide]	102	3670	2930
COc1cc(F)ccc1-c1ncnc(Nc2cccc(CCS(N)(=O)=O)c2)n1 [Compound D2, 2-[3-((4-(4-Fluoro-2-methoxyphenyl)-1,3,5-triazin-2-yl)amino)phenyl]ethanesulfonamide]	12.8	1630	423
NS(=O)(=O)Cc1cccc(Nc2ncnc(-c3ccccc3OCc3ccccc3)n2)c1 [B13′, 3-[(4-(2-Benzyloxyphenyl)-1,3,5-triazin-2-yl)amino]benzenemethanesulfonamide trifluoroacetic acid salt]	5.7	360	1770
NS(=O)(=O)Cc1cccc(Nc2ncnc(-c3ccccc3Oc3ccccc3)n2)c1 [Compound B14, 1-(3-{[4-(2-phenoxyphenyl)-1,3,5-triazin-2-yl]amino}phenyl)methanesulfonamide]	9	3960	
COc1ccccc1-c1ncnc(Nc2ccccc2)n1 [Compound P1, 4-(2-Methoxyphenyl)-N-phenyl-1,3,5-triazine-2-amine]	937	18800	
COc1cnccc1-c1ncnc(Nc2cccc(CS(N)(=O)=O)c2)n1 [Compound B19, 3-[(4-(3-Methoxypyridin-4-yl)-1,3,5-triazin-2-yl)amino]benzenemethanesulfonamide]		19900	
COc1ccccc1-c1ncnc(Nc2cccc(CCS(N)(=O)=O)c2)n1 [Compound D1, 2-[3-((4-(2-Methoxyphenyl)-1,3,5-triazin-2-yl)amino)phenyl]ethanesulfonamide]	139	4980	515
COc1cccc(F)c1-c1ncnc(Nc2cccc(CS(N)(=O)=O)c2)n1 [Compound B4, 3-[(4-(6-Fluoro-2-methoxyphenyl)-1,3,5-triazin-2-yl)amino]benzenemethanesulfonamide]	201	9710	1440
COc1ccc(F)cc1-c1ncnc(Nc2cccc(CS(N)(=O)=O)c2)n1 [Compound B3, 3-[(4-(5-Fluoro-2-methoxyphenyl)-1,3,5-triazin-2-yl)amino]benzenemethanesulfonamide]		2470	
COc1cc(F)ccc1-c1ncnc(Nc2cccc(CS(N)(=O)=O)c2)n1 [B2″, 1-(3-{[4-(4-fluoro-2-methoxyphenyl)-1,3,5-triazin-2-yl]amino}phenyl)methanesulfonamide trifluoroacetic acid salt]	11.6	1600	568
COc1ccccc1-c1ncnc(Nc2cccc(CS(N)(=O)=O)c2)n1 [B1′, 3-[(4-(2-Methoxyphenyl)-1,3,5-triazin-2-yl)amino]benzenemethanesulfonamide trifluoroacetic acid salt]	96.5	3560	3080
COc1ccccc1-c1ncnc(Nc2cccc(NS(C)(=O)=O)c2)n1 [Compound K1, N-[3-((4-(2-Methoxyphenyl)-1,3,5-triazin-2-yl)amino)phenyl]-methanesulfonamide]	72	5520	826
COc1ccccc1-c1ncnc(Nc2cccc([N+](=O)[O-])c2)n1 [Compound H1, 4-(2-Methoxyphenyl)-N-(3-nitrophenyl)-1,3,5-triazine-2-amine]	194	2670	
COc1cc(F)ccc1-c1ncnc(Nc2cccc(CS(N)(=O)=O)c2)n1 [B2′, 1-(3-{[4-(4-fluoro-2-methoxyphenyl)-1,3,5-triazin-2-yl]amino}phenyl)methanesulfonamide hydrochloride]	10.4		
COc1ccccc1-c1ncnc(Nc2cccc(S(N)(=O)=O)c2)n1 [C1′, 3-[(4-(2-Methoxyphenyl)-1,3,5-triazin-2-yl)amino]benzenesulfonamide trifluoroacetic acid salt]	20.7	1470	781
COc1cc(Cl)ccc1-c1ncnc(Nc2cccc(CS(N)(=O)=O)c2)n1 [Compound B6, 3-[(4-(4-Chloro-2-methoxyphenyl)-1,3,5-triazin-2-yl)amino]benzenemethanesulfonamide]	16.2	2490	> 10000
CCCS(=O)(=O)Nc1cccc(Nc2ncnc(-c3ccccc3OC)n2)c1 [Compound L1, N-[3-((4-(2-Methoxyphenyl)-1,3,5-triazin-2-yl)amino)phenyl]-propanesulfonamide]	111	6530	> 10000
NS(=O)(=O)Cc1cccc(Nc2ncnc(-c3ccccc3OCc3ccncc3)n2)c1 [Compound B16, 3-[(4-(2-((4-Pyridinyl)methoxy)phenyl)-1,3,5-triazin-2-yl)amino]benzenemethanesulfonamide]	9	960	1070
